Tested on: pediatric subjects with acute hypoxemic respiratory failure (AHRF)
Test: Pediatric AHRF study: adverse events, serious adverse events, deaths, discontinuations
Type: in vivo, human
Method: This was a prospective, multicenter, randomized, double-blind, placebo-controlled, parallel-group study of the safety and efficacy of inhaled nitric oxide in pediatric subjects with acute hypoxemic respiratory failure (AHRF). The subjects were randomized to receive either 5 ppm inhaled nitric oxide or placebo.
Nitric Oxide for inhalation at 5 ppm was administered continuously into the inspiratory limb of the ventilator circuit in mechanically ventilated subjects using a blinded version of the INOvent® delivery system.
Subjects received 100% treatment gas (nitric oxide 5 ppm or placebo [nitrogen gas]) until Day 28 or extubation, whichever occurred first.
This was a prospective, multicenter, randomized, double-blind, placebo-controlled, Phase III study to assess the effects of nitric oxide for inhalation in the treatment of acute hypoxic respiratory failure (AHRF) in pediatric subjects. The study population consisted of male and female pediatric subjects, aged 44 weeks postconceptional age to 16 years age, who were admitted to the pediatric intensive care unit (PICU) and who required intubation because of AHRF. The inclusion/exclusion criteria are described in the Patients section below.
Standardized ventilatory management and weaning procedures were used. Ventilatory management was used based on an “open lung approach” using positive end-expiratory pressure (PEEP) to increase lung volume and limiting tidal volumes to reduce plateau pressures. Subjects received nitric oxide for inhalation at 5 ppm or placebo (100% Grade 5 nitrogen gas) into the inspiratory limb of the ventilator circuit using a blinded version of the INOvent® delivery system. The subjects were treated until Day 28 or extubation, whichever occurred first. Subjects were assessed daily using a spontaneous breathing trial, according to the institution's standard of care. Arterial blood gases (ABG), ventilator settings, methemoglobin, oxygenation index, systolic blood pressure, diastolic blood pressure, Pediatric Risk of Mortality (PRISM) III score, and subject positioning (prone or supine) were performed/recorded at specified times during the study. Selected centers also performed plasma cytokine assays, bronchoalveolar lavage fluid (BALF) assays, and a 6-month follow-up assessment.

[1] = 5 ppm, relationship to study treatment Suspected

With `[N]=O` [Nitric Oxide, nitric oxide] the “Serious adverse event: Hypotension, subjects n (%)” value [1] was 0 (0.0), the “Serious adverse event: Hypoxia, subjects n (%)” value [1] was 0 (0.0) and the “Serious adverse event: Intracranial pressure increased, subjects n (%)” value [1] was 0 (0.0). The “Serious adverse event: Multi-organ failure, subjects n (%)” value [1] was 0 (0.0), the “Serious adverse event: Pancreatitis, subjects n (%)” value [1] was 0 (0.0) and the “Serious adverse event: Pneumonia, aspergillus, subjects n (%)” value [1] was 0 (0.0). The “Serious adverse event: Pulmonary hemorrhage, subjects n (%)” value [1] was 0 (0.0), the “Serious adverse event: Renal failure, acute, subjects n (%)” value [1] was 0 (0.0) and the “Serious adverse event: Renal failure, subjects n (%)” value [1] was 0 (0.0). The “Serious adverse event: Renal impairment, subjects n (%)” value [1] was 0 (0.0), the “Serious adverse event: Respiratory failure, subjects n (%)” value [1] was 0 (0.0) and the “Serious adverse event: Sepsis, subjects n (%)” value [1] was 0 (0.0). For the same molecule, the “Serious adverse event: Subdural hematoma, subjects n (%)” value [1] was 0 (0.0), the “Serious adverse event: Unevaluable event, subjects n (%)” value [1] was 0 (0.0) and the Abdominal distension (5 ppm, subjects with AE) was 0 (0.0) n (%). For the same molecule, the Acidosis (5 ppm, subjects with AE) was 1 (3.8%) n (%), the Agitation (5 ppm, subjects with AE) was 2 (7.7%) n (%) and the Anemia (5 ppm, subjects with AE) was 1 (3.8%) n (%). For the same molecule, the Apnea (5 ppm, subjects with AE) was 1 (3.8%) n (%), the Arrhythmia (5 ppm, subjects with AE) was 1 (3.8%) n (%) and the Ascites (5 ppm, subjects with AE) was 1 (3.8%) n (%). For the same molecule, the Bacteremia (5 ppm, subjects with AE) was 2 (7.7%) n (%), the “Bacteria, blood” value (5 ppm, subjects with AE) was 1 (3.8%) n (%) and the “Bacteria, sputum” value (5 ppm, subjects with AE) was 0 (0.0) n (%). The Bladder distension (5 ppm, subjects with AE) was 0 (0.0) n (%), the Brain edema (5 ppm, subjects with AE) was 0 (0.0) n (%) and the Bronchoalveolar lavage (5 ppm, subjects with AE) was 1 (3.8%) n (%). For the same molecule, the C-reactive protein increased (5 ppm, subjects with AE) was 0 (0.0) n (%), the Cardiac arrest (5 ppm, subjects with AE) was 0 (0.0) n (%) and the Cerebral artery occlusion (5 ppm, subjects with AE) was 0 (0.0) n (%). For the same molecule, the Chest tube insertion (5 ppm, subjects with AE) was 1 (3.8%) n (%), the Deep vein thrombosis (5 ppm, subjects with AE) was 2 (7.7%) n (%) and the Device failure (5 ppm, subjects with AE) was 0 (0.0) n (%). For the same molecule, the Diabetic ketoacidosis (5 ppm, subjects with AE) was 0 (0.0) n (%), the Diarrhea (5 ppm, subjects with AE) was 0 (0.0) n (%) and the Disseminated intravascular coagulation (5 ppm, subjects with AE) was 0 (0.0) n (%). For the same molecule, the Empyema (5 ppm, subjects with AE) was 0 (0.0) n (%), the Feeding disorder (5 ppm, subjects with AE) was 0 (0.0) n (%) and the Fungemia (5 ppm, subjects with AE) was 1 (3.8%) n (%). For the same molecule, the Fungus culture positive (5 ppm, subjects with AE) was 0 (0.0) n (%), the “Fungus urine test positive” value (5 ppm, subjects with AE) was 0 (0.0) n (%) and the Gangrene (5 ppm, subjects with AE) was 1 (3.8%) n (%). For the same molecule, the Gastrointestinal hemorrhage (5 ppm, subjects with AE) was 0 (0.0) n (%), the Generalized edema (5 ppm, subjects with AE) was 0 (0.0) n (%) and the Hematuria (5 ppm, subjects with AE) was 0 (0.0) n (%). For the same molecule, the Hemoglobinemia (5 ppm, subjects with AE) was 1 (3.8%) n (%), the Hemolytic anemia (5 ppm, subjects with AE) was 0 (0.0) n (%) and the Hemopneumothorax (5 ppm, subjects with AE) was 0 (0.0) n (%). For the same molecule, the Hemorrhage (5 ppm, subjects with AE) was 0 (0.0) n (%), the Hemothorax (5 ppm, subjects with AE) was 0 (0.0) n (%) and the Hepatic failure (5 ppm, subjects with AE) was 0 (0.0) n (%). For the same molecule, the Hepatosplenomegaly (5 ppm, subjects with AE) was 1 (3.8%) n (%), the Hyperammonemia (5 ppm, subjects with AE) was 0 (0.0) n (%) and the Hypercalcemia (5 ppm, subjects with AE) was 1 (3.8%) n (%). The Hypercapnia (5 ppm, subjects with AE) was 0 (0.0) n (%), the Hyperchloremia (5 ppm, subjects with AE) was 1 (3.8%) n (%) and the Hyperglycemia (5 ppm, subjects with AE) was 1 (3.8%) n (%). For the same molecule, the Hyperkalemia (5 ppm, subjects with AE) was 1 (3.8%) n (%), the Hyperlipidemia (5 ppm, subjects with AE) was 0 (0.0) n (%) and the Hypernatremia (5 ppm, subjects with AE) was 2 (7.7%) n (%). For the same molecule, the Hypertension (5 ppm, subjects with AE) was 0 (0.0) n (%), the Hypocalcemia (5 ppm, subjects with AE) was 1 (3.8%) n (%) and the Hypochloremia (5 ppm, subjects with AE) was 0 (0.0) n (%). The Hypothermia (5 ppm, subjects with AE) was 0 (0.0) n (%), the Hypoxia (5 ppm, subjects with AE) was 0 (0.0) n (%) and the Intracranial pressure increased (5 ppm, subjects with AE) was 0 (0.0) n (%). For the same molecule, the Labile blood pressure (5 ppm, subjects with AE) was 0 (0.0) n (%), the Leukocytosis (5 ppm, subjects with AE) was 1 (3.8%) n (%) and the “Lung infection, pseudomonal” value (5 ppm, subjects with AE) was 0 (0.0) n (%). The Medical device removal (5 ppm, subjects with AE) was 0 (0.0) n (%), the Metabolic acidosis (5 ppm, subjects with AE) was 0 (0.0) n (%) and the Metabolic alkalosis (5 ppm, subjects with AE) was 1 (3.8%) n (%). The Multi-organ failure (5 ppm, subjects with AE) was 0 (0.0) n (%), the Ocular icterus (5 ppm, subjects with AE) was 0 (0.0) n (%) and the Oliguria (5 ppm, subjects with AE) was 0 (0.0) n (%). The Oxygen saturation decreased (5 ppm, subjects with AE) was 2 (7.7%) n (%), the Pancreatitis (5 ppm, subjects with AE) was 0 (0.0) n (%) and the Pleural effusion (5 ppm, subjects with AE) was 0 (0.0) n (%). For the same molecule, the Pneumomediastinum (5 ppm, subjects with AE) was 0 (0.0) n (%), the Pneumonia (5 ppm, subjects with AE) was 1 (3.8%) n (%) and the “Pneumonia, aspergillus” value (5 ppm, subjects with AE) was 0 (0.0) n (%). The “Pneumonia, staphylococcal” value (5 ppm, subjects with AE) was 1 (3.8%) n (%), the Pruritus (5 ppm, subjects with AE) was 0 (0.0) n (%) and the Pseudomonal sepsis (5 ppm, subjects with AE) was 1 (3.8%) n (%). The Pulmonary hemorrhage (5 ppm, subjects with AE) was 0 (0.0) n (%), the Pulmonary hypertension (5 ppm, subjects with AE) was 0 (0.0) n (%) and the Pyrexia (5 ppm, subjects with AE) was 0 (0.0) n (%). The Renal failure (5 ppm, subjects with AE) was 1 (3.8%) n (%), the “Renal failure, acute” value (5 ppm, subjects with AE) was 0 (0.0) n (%) and the Renal impairment (5 ppm, subjects with AE) was 0 (0.0) n (%). The Respiratory acidosis (5 ppm, subjects with AE) was 0 (0.0) n (%), the Sepsis (5 ppm, subjects with AE) was 0 (0.0) n (%) and the Skin injury (5 ppm, subjects with AE) was 0 (0.0) n (%). For the same molecule, the Subdural hematoma (5 ppm, subjects with AE) was 0 (0.0) n (%), the Thrombocythemia (5 ppm, subjects with AE) was 1 (3.8%) n (%) and the Thrombocytopenia (5 ppm, subjects with AE) was 0 (0.0) n (%). The Tracheitis (5 ppm, subjects with AE) was 2 (7.7%) n (%), the Unevaluable event (5 ppm, subjects with AE) was 2 (7.7%) n (%) and the Urinary tract infection (5 ppm, subjects with AE) was 1 (3.8%) n (%). For the same molecule, the “Urinary tract infection, fungal” value (5 ppm, subjects with AE) was 1 (3.8%) n (%), the Urine output decreased (5 ppm, subjects with AE) was 1 (3.8%) n (%) and the “White blood cell count increased” value (5 ppm, subjects with AE) was 0 (0.0) n (%). For the same molecule, the “AE in which death was the outcome, subject 2001A” value (died after the treatment period) was “No AE listed in which death was the outcome”, the “AE in which death was the outcome, subject 2007” value (donor two) was “No AE listed in which death was the outcome” and the “relationship of deaths, serious AEs, severe AEs and AEs resulting in discontinuation to study treatment” value (in words) was “No death, serious AE, severe AE, or AE resulting in treatment discontinuation was suspected to be related to study treatment”. The “SAE (identification of subjects with serious adverse events)” value (subject 3003 (person one), nitric oxide group) was “Bradycardia, hypotension” and the “Action/Reported Outcome of SAE” value (subject 3003 (person one), nitric oxide group, DC = discontinued treatment) was “DC/death”.

Reference: patent publication US10201564B2, “Methods of using inhaled nitric oxide gas for treatment of acute respiratory distress syndrome in children” (Mallinckrodt Hospital Products IP Limited, priority 2014, dated 2019)
